Blank lines part the entries; values can stand above or below the compound they belong to.
Tests used:
myrosinase [1] = experiment: Equimolar conversion of glucoraphanin to sulforaphane by myrosinase with ascorbic acid (Example 4); assay type: biochemical, broccoli; details: control sample, without ascorbic acid
Experimental: A two-part experiment was conducted to further elucidate the role of ascorbic acid in modulating myrosinase activity. […] A control sample contained no ascorbic acid, and the enzymatic conversion proceeded unassisted by a co-factor. PART 1. […] PART 2. While keeping the amount of broccoli seed extract fixed at 250 mg, the concentration of ascorbic acid was varied from 0.4 mmol/Liter to 3.8 mmol/Liter.

myrosinase [2] = experiment: Conversion of glucoraphanin to sulforaphane in Simulated Intestinal Fluid (Example 5); assay type: biochemical, broccoli; details: 0.25 to 1.00 mmol/Liter ascorbic acid, 38° C., FIG. 4
Experimental: Simulated Intestinal Fluid (SIF) powder, a commercially supplied concentrate closely approximating the human intestinal content in terms of composition, pH and ionic strength, was used. The experiment utilized a USP Dissolution Apparatus 2 (paddles), where into six dissolution vessels 500 mL of Simulated Intestinal Fluid was dispensed, along with 150 mg of freeze-dried broccoli sprout powder as a source of myrosinase. […] Aliquots were withdrawn every 15 minutes, and assayed for sulforaphane.

mammary epithelium = details: oral administration, Sprague-Dawley rats; cited from earlier work
mammary tumors = details: Sprague-Dawley rats; cited from earlier work

Stoichiometry of conversion of glucoraphanin to sulforaphane (myrosinase [1]): equimolar conversion
Compound: C[S+]([O-])CCCC/C(=N\OS(=O)(=O)O)S[C@@H]1O[C@H](CO)[C@@H](O)[C@H](O)[C@H]1O (some centres unmarked) [glucoraphanin, 4-methylsulfinylbutyl glucosinolate]

Compound: O=C1O[C@H]([C@@H](O)CO)C(O)=C1O [Ascorbic Acid, Ascorbic acid]
Yield of sulforaphane versus ascorbic acid concentration (myrosinase [2]): direct correlation between larger yield of sulforaphane and higher concentrations of ascorbic acid

Compound: C[S+]([O-])CCCCN=C=S (centres unmarked) [SFN, 1-isothiocyanato-4-methylsulfinylbutane]
Elevated immunostaining of the heme oxygenase-1 (HO-1) enzyme (mammary epithelium): 4 fold | Increase in NAD(P)H:quinine oxidoreductase (NQO1) enzymatic activity (mammary epithelium): 3 fold | Blocking the formation of mammary tumors (mammary tumors): effective
